Results on one molecule are retold here after ChEMBL document CHEMBL2073797, “Characterization of an organic anion-transporting polypeptide (OATP-B) in human placenta” (J Clin Endocrinol Metab, 2002).

Structures can show the parent of a compound that is named as a salt.

As usually defined, the inhibition is the percentage by which the read-out fell short of the control.

The data set concerns the target T1, Solute carrier organic anion transporter family member 2B1 (OATP2B1) (Homo sapiens, UniProt O94956).
T1 sequence (O94956 whole entry): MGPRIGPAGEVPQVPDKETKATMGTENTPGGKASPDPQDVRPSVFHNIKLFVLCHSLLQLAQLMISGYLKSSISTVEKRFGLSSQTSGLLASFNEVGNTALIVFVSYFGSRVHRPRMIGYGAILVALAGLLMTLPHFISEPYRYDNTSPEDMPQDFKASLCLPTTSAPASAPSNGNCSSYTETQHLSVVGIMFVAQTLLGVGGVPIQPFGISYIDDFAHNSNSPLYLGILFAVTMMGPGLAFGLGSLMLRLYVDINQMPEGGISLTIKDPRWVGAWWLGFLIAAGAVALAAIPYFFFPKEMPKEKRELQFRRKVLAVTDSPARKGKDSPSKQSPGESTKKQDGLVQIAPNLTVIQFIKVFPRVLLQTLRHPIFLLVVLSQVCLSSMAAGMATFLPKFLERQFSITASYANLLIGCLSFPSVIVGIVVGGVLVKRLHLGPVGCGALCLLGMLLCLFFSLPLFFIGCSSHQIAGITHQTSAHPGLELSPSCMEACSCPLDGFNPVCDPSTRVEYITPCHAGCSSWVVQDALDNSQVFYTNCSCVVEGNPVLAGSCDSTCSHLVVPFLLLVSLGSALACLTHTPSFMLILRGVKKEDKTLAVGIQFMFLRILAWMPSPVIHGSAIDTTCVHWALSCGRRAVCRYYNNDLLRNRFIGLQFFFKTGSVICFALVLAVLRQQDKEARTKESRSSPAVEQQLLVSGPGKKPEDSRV
Briefly: TP_TRANSPORTER: inhibition of Estrone-3-sulfate uptake (Estrone-3-sulfate: 1 uM, Pregnenolone sulfate: 100 uM) in Xenopus laevis oocytes. It counts as functional, cell-based, Oocyte. The note with it: Xenopus laevis oocytes expressing OATP2B1 (SLCO2B1), probe Estrone-3-sulfate (1 uM).

The molecule `CC(=O)[C@H]1CC[C@H]2[C@@H]3CC=C4C[C@@H](OS(=O)(=O)O)CC[C@]4(C)[C@H]3CC[C@]12C` [PREGNENOLONE SULFATE] yielded an inhibition at 100 µM of 83%.
